Columns and labels:
[1] = Radiation-induced oxidation of liposomes (MDA/TBA read-out); type: biochemical, hen; settings: for Radioprotection in %: 500 Gy Co60 γ-quanta, 84.8 Gy/min, liposomes 2 mg/ml phospholipids in saline solution
Excerpt: (§1) The biologic membranes play the most important role in cell vital activity. The high sensibility of lipids and phospholipids, which are the main structural components of biomembranes, as to oxidative stress, including those caused by irradiation, is the consequence of the high content of unsaturated fatty acids. The liposomes being obtained from phospholipids of hen's egg yolk were used as a model of the biomembranes. The phospholipids are able to form liposome emulsions in water; this allows studying in model experiments the radioprotective and antioxidant properties of various water-soluble and water-insoluble compounds, including water-insoluble phytoene as well. To obtain the liposomes, 20 mg of the phospholipids, being dissolved in chloroform, were entered into a conical vial and dried in vacuum. Then 2 ml of a saline solution containing 0.15 M NaCl, 0.005 M KCl, 0.0012 M KH2PO4, 0.0012 M Na2HPO4 at pH 7.4 was added to the dried sample. The mixture has been shaken, input into an ultrasonic bath for 30 seconds, and then the total volume was increased up to 10 ml, stirred, treated with ultrasound, and as the result the liposome suspension with the phospholipid concentration of 2 mg/ml was received. […] Optical density of the colored TBA products was calculated by the optical density data, considering the molar extinction coefficient at 532 nm equals to 156,000 mol^-1·cm^-1. […] Taking as 100% the level of the MDA increment at the induced liposome oxidation above spontaneous phospholipids oxidation in the absence of phytoene, and taking into account the fact that the presence of phytoene in the liposomes can modify the level of the spontaneous oxidation, the protection efficacy (PE)OK in the […] of the induced liposome oxidation was calculated by the formula: (PE)OK=(CPOK-CPK)·100/(COK-CK), in which CPK , CPOK are the MDA concentrations in the liposomes with phytoene before and after the liposome induced oxidation respectively; CK, COK (are the MDA concentrations in the control liposomes (without phytoene) before and after the liposome induced oxidation respectively.

[2] = Fe++-induced oxidation of liposomes (MDA/TBA read-out); type: biochemical, hen; settings: for Protection against Fe++-induced oxidation in %: 50 μM Fe++, 30 minutes, room temperature
Excerpt: as §1

CC(C)=CCC/C(C)=C/CC/C(C)=C/CC/C(C)=C/C=C/C=C(\C)CC/C=C(\C)CC/C=C(\C)CCC=C(C)C (stereo in doubt) [phytoene]
Radioprotection in % ([1]; phytoene:phospholipid 1:10): 62.0 ± 10.4% | Radioprotection in % ([1]; phytoene:phospholipid 1:100): 37.2 ± 5.2% | Protection of liposomes against oxidative stress induced by the radiation (in words) ([1]; summary statement): protects the liposomes against the oxidative stress | Protection against Fe++-induced oxidation in % ([2]; phytoene:phospholipid 1:10): 50.9 ± 6.6% | Protection against Fe++-induced oxidation in % ([2]; phytoene:phospholipid 1:100): 18.7 ± 11.5% | Protection of liposomes against oxidative stress induced with ferrous iron ions (in words) ([2]; summary statement): protects the liposomes against the oxidative stress

Source: patent US20150328269A1, “PREPARATION FOR RADIO PROTECTION” (LYCORED LTD., priority 2012, published 2015)
